Test results from patent publication US20240279227A1, “FUSED HETEROCYCLIC DERIVATIVES” (Janssen Sciences Ireland Unlimited Company, priority 2021, published 2024).

Columns and labels:
HBV = test: Anti-HBV activity in HepG2.117 cell line (intracellular HBV DNA, real-time PCR); format: cell-based, hepatitis B virus; conditions: HepG2.117 cells, HBV replication induced, 3 days of treatment, intracellular HBV DNA by real-time PCR
Protocol: The anti HBV activity was measured using the HepG2.117 cell line, a stable, inducibly HBV producing cell line, which replicates HBV in the absence of doxycycline (Tet-off system). The HepG2 cell line is available from ATCCR under number HB-8065. Transfection of the HepG2 cell line can be as described in Sun and Nassal 2006 Journal of Hepatology 45 (2006) 636-645 “Stable HepG2-and Huh7-based human hepatoma cell lines for efficient regulated expression of infectious hepatitis B virus”.
For the antiviral assay, HBV replication was induced, followed by a treatment with serially diluted compound in 96-well plates. After 3 days of treatment, the antiviral activity was determined by quantification of intracellular HBV DNA using real-time PCR and an HBV specific primer set and probe.

[1] = Cytotoxicity, ATPlite Luminescence Assay; format: cell-based, human; conditions: human, HepG2 or HepG2.117 cells, 3-days incubation unless marked with *, ATPlite viability
Protocol: Cytotoxicity of the compounds was tested using HepG2 or HepG2.117 cells, incubated for 3 or 4 days in the presence of compounds. The viability of the cells was assessed using the PERKIN ELMER ATPlite Luminescence Assay System.”

[2] = Human liver microsome stability; format: in vitro ADME; conditions: human, pooled human liver microsomes, pH 7.4, pooled human liver microsomes 0.5 mg/mL, 1 μM compound, NADPH 1 mM, pH 7.4, 37° C., 0-60 min; read-out: HLM Metabolism t1/2
Protocol: Pooled human liver microsomes (0.5 mg/mL) was pre-incubated with 1 μM test compounds or control compounds (verapamil, warfarin and cerivastatin) in 0.1 M phosphate buffer pH 7.4 containing 1 mM MgCl2 at 37° C. The final concentration of DMSO and acetonitrile are 0.05% and 0.2%, respectively. All incubations are performed singularly for each compound. NADPH was added to initiate the reaction with the final concentration of 1 mM and the final incubation volume of 400 μL.
At 6 time points (0, 5, 10, 20, 40 and 60 min) reactions were stopped by the removal of 50 μL of the incubation mixture into plates containing acetonitrile at a of 1:3 (v:v). The plates were centrifuged at 3000 rpm for 10 min at 4° C. to precipitate the protein. Following protein precipitation, the sample supernatants were combined in cassettes of up to 8 compounds. The internal standard was added (1:1 supernatant to internal standard solution) and samples were analyzed using standard LC-MS conditions.
From a plot of ln peak area ratio (compound peak area/internal standard peak area) against time, the gradient of the line is determined. Subsequently, half-life is calculated using the equations below: […]

[3] = Hepatitis B virus, HepG2.117, 72 h

Structure (SMILES)	EC50 (HBV) [µM]	CC50 [1] [µM]	half-life at 1 μM [2] [h]	EC50 (HBV; [3]) [µM]
CNC(=O)[C@@H]1CN(C(C)c2ccc(S(C)(=O)=O)cc2)C(=O)c2c3c(nn21)C[C@@H](C)N(C(=O)c1ccc(Cl)c(C(F)(F)F)c1)C3 (single isomer, unassigned) [Compound 19A, (3R,7S)-2-(4-Chloro-3-(trifluoromethyl)benzoyl)-N,3-dimethyl-9-((R*)-1-(4-(methylsulfonyl)phenyl)ethyl)-10-oxo-1,2,3,4,7,8,9,10-octahydropyrido[4′,3′:3,4]pyrazolo[1,5-a]pyrazine-7-carboxamide]	0.12	> 50	> 3	–
CC(c1ccc(OC(F)F)nc1)N1C[C@@H](C(N)=O)n2nc3c(c2C1=O)CN(C(=O)c1ccc(Cl)c(Cl)c1)[C@H](C)C3 (single isomer, unassigned) [Compound 12A, (3R,7S)-2-(3,4-Dichlorobenzoyl)-9-((R*)-1-(6-(difluoromethoxy)pyridin-3-yl)ethyl)-3-methyl-10-oxo-1,2,3,4,7,8,9,10-octahydropyrido[4′,3′:3,4]pyrazolo[1,5-a]pyrazine-7-carboxamide]	0.059	24.4	> 3	–
CNC(=O)[C@@H]1CN(C(C)c2ccn(CC(F)(F)F)n2)C(=O)c2c3c(nn21)C[C@@H](C)N(C(=O)c1ccc(Cl)c(C(F)(F)F)c1)C3 (single isomer, unassigned) [Compound 14B, (3R,7S)-2-(4-chloro-3-(trifluoromethyl)benzoyl)-N,3-dimethyl-10-oxo-9-((S*)-1-(1-(2,2,2-trifluoroethyl)-1H-pyrazol-3-yl)ethyl)-1,2,3,4,7,8,9,10-octahydropyrido[4′,3′:3,4]pyrazolo[1,5-a]pyrazine-7-carboxamide]	–	> 50	> 3	0.031
CNC(=O)[C@@H]1CN(Cc2ccc(S(=O)(=O)C3CC3)cc2)C(=O)c2c3c(nn21)C[C@@H](C)N(C(=O)c1ccc(Cl)c(C(F)(F)F)c1)C3 [Compound 21, (3R,7S)-2-(4-Chloro-3-(trifluoromethyl)benzoyl)-9-(4-(cyclopropylsulfonyl)benzyl)-N,3-dimethyl-10-oxo-1,2,3,4,7,8,9,10-octahydropyrido[4′,3′:3,4]pyrazolo[1,5-a]pyrazine-7-carboxamide]	–	> 50	> 3	0.086
CNC(=O)[C@@H]1CN(C(C)c2ccc(OC)nc2)C(=O)c2c3c(nn21)C[C@@H](C)N(C(=O)c1ccc(Cl)c(Cl)c1)C3 (single isomer, unassigned) [Compound 31A, (3R,7S)-2-(3,4-Dichlorobenzoyl)-9-((R*)-1-(6-methoxypyridin-3-yl)ethyl)-N,3-dimethyl-10-oxo-1,2,3,4,7,8,9,10-octahydropyrido[4′,3′:3,4]pyrazolo[1,5-a]pyrazine-7-carboxamide]	0.066	> 50	> 3	–
CNC(=O)[C@@H]1CN(Cc2ccc(OC(F)F)cc2)C(=O)c2c3c(nn21)C[C@@H](C)N(C(=O)c1ccc(Cl)c(C(F)(F)F)c1)C3 [Compound 28, (3R,7S)-2-(4-Chloro-3-(trifluoromethyl)benzoyl)-9-(4-(difluoromethoxy)benzyl)-N,3-dimethyl-10-oxo-1,2,3,4,7,8,9,10-octahydropyrido[4′,3′:3,4]pyrazolo[1,5-a]pyrazine-7-carboxamide]	–	29.5	> 3	0.019
CNC(=O)[C@@H]1CN(C(C)c2ccc(-c3nnnn3C)cc2)C(=O)c2c3c(nn21)C[C@@H](C)N(C(=O)c1ccc(Cl)c(Cl)c1)C3 (single isomer, unassigned) [Compound 29A, (3R,7S)-2-(3,4-Dichlorobenzoyl)-N,3-dimethyl-9-((R*)-1-(4-(1-methyl-1H-tetrazol-5-yl)phenyl)ethyl)-10-oxo-1,2,3,4,7,8,9,10-octahydropyrido[4′,3′:3,4]pyrazolo[1,5-a]pyrazine-7-carboxamide]	0.82	> 50	> 3	–
CNC(=O)[C@@H]1CN(C(C)c2ccc(C(F)(F)F)nc2)C(=O)c2c3c(nn21)C[C@@H](C)N(C(=O)c1ccc(Br)c(Cl)c1)C3 (single isomer, unassigned) [Compound 10B, (3R,7S)-2-(4-bromo-3-chlorobenzoyl)-N,3-dimethyl-10-oxo-9-((S*)-1-(6-(trifluoromethyl)pyridin-3-yl)ethyl)-1,2,3,4,7,8,9,10-octahydropyrido[4′,3′:3,4]pyrazolo[1,5-a]pyrazine-7-carboxamide]	–	46.8	> 3	0.019
CNC(=O)[C@@H]1CN(C(C)c2ccc(C(C)(C)O)cn2)C(=O)c2c3c(nn21)C[C@@H](C)N(C(=O)c1ccc(Cl)c(Cl)c1)C3 (single isomer, unassigned) [Compound 39A, (3R,7S)-2-(3,4-Dichlorobenzoyl)-9-((R*)-1-(5-(2-hydroxypropan-2-yl)pyridin-2-yl)ethyl)-N,3-dimethyl-10-oxo-1,2,3,4,7,8,9,10-octahydropyrido[4′,3′:3,4]pyrazolo[1,5-a]pyrazine-7-carboxamide]	1.68	> 50	> 3	–
CNC(=O)[C@@H]1CN(C(C)c2ccc(C)nn2)C(=O)c2c3c(nn21)C[C@@H](C)N(C(=O)c1ccc(Cl)c(Cl)c1)C3 (single isomer, unassigned) [Compound 1B, (3R,7S)-2-(3,4-Dichlorobenzoyl)-N,3-dimethyl-9-((S*)-1-(6-methylpyridazin-3-yl)ethyl)-10-oxo-1,2,3,4,7,8,9,10-octahydropyrido[4′,3′:3,4]pyrazolo[1,5-a]pyrazine-7-carboxamide]	–	> 50	> 3	0.38
CNC(=O)[C@@H]1CN([C@@H](C)c2ccc(S(C)(=O)=O)cc2)C(=O)c2c3c(nn21)C[C@@H](C)N(C(=O)c1ccc(Cl)c(Cl)c1)C3 [Compound 18B, (3R,7S)-2-(3,4-Dichlorobenzoyl)-N,3-dimethyl-9-((S)-1-(4-(methylsulfonyl)phenyl)ethyl)-10-oxo-1,2,3,4,7,8,9,10-octahydropyrido[4′,3′:3,4]pyrazolo[1,5-a]pyrazine-7-carboxamide]	–	> 50	> 3	0.037
CNC(=O)[C@@H]1CN([C@@H](C)c2ccc(OC(F)F)cc2)C(=O)c2c3c(nn21)C[C@@H](C)N(C(=O)c1ccc(Cl)c(C(F)F)c1)C3 [Compound 25, (3R,7S)-2-(4-Chloro-3-(difluoromethyl)benzoyl)-9-((S)-1-(4-(difluoromethoxy)phenyl)ethyl)-N,3-dimethyl-10-oxo-1,2,3,4,7,8,9,10-octahydropyrido[4′,3′:3,4]pyrazolo[1,5-a]pyrazine-7-carboxamide]	–	> 50	1.3	0.01
CCC(c1ccc(S(C)(=O)=O)cc1)N1C[C@@H](C(=O)NC)n2nc3c(c2C1=O)CN(C(=O)c1ccc(Cl)c(Cl)c1)[C@H](C)C3 (single isomer, unassigned) [Compound 22A, (3R,7S)-2-(3,4-Dichlorobenzoyl)-N,3-dimethyl-9-((R*)-1-(4-(methylsulfonyl)phenyl)propyl)-10-oxo-1,2,3,4,7,8,9,10-octahydropyrido[4′,3′:3,4]pyrazolo[1,5-a]pyrazine-7-carboxamide]	0.27	> 50	> 3	–
CNC(=O)[C@@H]1CN([C@@H](C)c2ccc(OC(F)F)cc2)C(=O)c2c3c(nn21)C[C@@H](C)N(C(=O)c1ccc(Cl)c(Cl)c1)C3 [Compound 16B, (3R,7S)-2-(3,4-dichlorobenzoyl)-9-((S)-1-(4-(difluoromethoxy)phenyl)ethyl)-N,3-dimethyl-10-oxo-1,2,3,4,7,8,9,10-octahydropyrido[4′,3′:3,4]pyrazolo[1,5-a]pyrazine-7-carboxamide]	–	16.9	> 3	0.02
CNC(=O)[C@@H]1CN(C(C)c2ccc(S(=O)(=O)C3CC3)cc2)C(=O)c2c3c(nn21)C[C@@H](C)N(C(=O)c1ccc(Cl)c(C(F)(F)F)c1)C3 (single isomer, unassigned) [Compound 20A, (3R,7S)-2-(4-Chloro-3-(trifluoromethyl)benzoyl)-9-((R*)-1-(4-(cyclopropylsulfonyl)phenyl)ethyl)-N,3-dimethyl-10-oxo-1,2,3,4,7,8,9,10-octahydropyrido[4′,3′:3,4]pyrazolo[1,5-a]pyrazine-7-carboxamide]	0.089	> 50	> 3	–
